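Where inhibition never reached the appropriate level, the endpoint shown equals the highest concentration tested. Otherwise, values were interpolated linearly from a five-concentration, 48-hour dose response in 96-well plates. GI50 is the concentration that inhibits growth by half.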 Calls of active or inactive are those of the source. No stated cut-off is given here; in the data, active = GI50 up to about 1.1 µM and inactive = higher. Where a SMILES comes first, the peptide text is derived from it. The star is where a group is joined. Boc = CC(C)(C)OC(=O)*
Legend:
Experiment in all cases: NCI anticancer screen, dose series, 48 h
[1] = test system: OVCAR-5
[2] = test system: MCF7
[3] = test system: SK-MEL-2
[4] = test system: U-251
[5] = test system: KM12
[6] = test system: HL-60
[7] = test system: SR
[8] = test system: SK-MEL-5
[9] = test system: UACC-62
[10] = test system: SF-539
[11] = test system: NCI-H522
[12] = test system: PC-3
[13] = test system: Hs-578T
[14] = test system: UACC-257
[15] = test system: Malme-3M
[16] = test system: OVCAR-4
[17] = test system: HT-29
[18] = test system: SF-268
[19] = test system: UO-31
[20] = test system: MDA-N

Row | SMILES | GI50 [1] | GI50 [2] | GI50 [3] | GI50 [4] | GI50 [5] | GI50 [6] | GI50 [7] | GI50 [8] | GI50 [9] | GI50 [10] | GI50 [11] | GI50 [12] | GI50 [13] | GI50 [14] | GI50 [15] | GI50 [16] | GI50 [17] | GI50 [18] | GI50 [19] | GI50 [20]
1 | CN(NC1=NCCO1)c1ccc2ccccc2c1 | 80 µM (inactive) | 48.6 µM (inactive) | 27.8 µM (inactive) | 59.7 µM (inactive) | 63.1 µM (inactive) | 26.9 µM (inactive) | 39.6 µM (inactive) | 29.2 µM (inactive) | 49.1 µM (inactive) | 23.6 µM (inactive) | 29.9 µM (inactive) | 40.3 µM (inactive) | 35.2 µM (inactive) | 65 µM (inactive) | 36.2 µM (inactive) | 42 µM (inactive) | 41.1 µM (inactive) | 47.5 µM (inactive) | 69.5 µM (inactive) | 
2 | COc1ccc(C2=Nn3c(nnc(Cc4ccc(Cl)cc4)c3=O)SC2)cc1 | > 100 µM (inactive) | 27.9 µM (inactive) | 26.5 µM (inactive) | 40.3 µM (inactive) | 35.8 µM (inactive) | 32.8 µM (inactive) |  | 75.3 µM (inactive) | 32.4 µM (inactive) | 37.8 µM (inactive) | 42.4 µM (inactive) | 42.9 µM (inactive) | 63.5 µM (inactive) | 46.9 µM (inactive) | > 100 µM (inactive) | 42.9 µM (inactive) | 30.4 µM (inactive) | > 100 µM (inactive) | 52.1 µM (inactive) | 
3 | CSc1ccc(C=C2N=C(c3ccccc3)N(c3cc(C(=O)c4ccccc4)ccc3N3C(=O)/C(=C/c4ccc(SC)cc4)N=C3c3ccccc3)C2=O)cc1 | > 100 µM (inactive) | > 100 µM (inactive) | 36.1 µM (inactive) | 27 µM (inactive) | 40 µM (inactive) | 8.04 µM (inactive) |  | 37.6 µM (inactive) | 44.9 µM (inactive) | 22.6 µM (inactive) |  | 40 µM (inactive) | 52.7 µM (inactive) | 89.9 µM (inactive) |  | 40 µM (inactive) | 81.3 µM (inactive) | 53.2 µM (inactive) | 48.4 µM (inactive) | 93.1 µM (inactive)
4 | COc1ccc(-c2nc(N)c(C#N)c3c2CCS(=O)(=O)c2ccc(C)cc2-3)cc1OC | 19.6 µM (inactive) |  | 16.2 µM (inactive) | 40.6 µM (inactive) | 19.4 µM (inactive) |  | 0.252 µM (active) | 20.7 µM (inactive) | 15.2 µM (inactive) |  | 8.87 µM (inactive) | 11.9 µM (inactive) | 24.6 µM (inactive) | 22.6 µM (inactive) | 26.5 µM (inactive) | 25.8 µM (inactive) | 30.1 µM (inactive) | 51.2 µM (inactive) | 30.8 µM (inactive) | 11.7 µM (inactive)
5 | O=C1c2ccccc2C(=O)C1C(c1ccc([N+](=O)[O-])cc1)C1C(=O)c2ccccc2C1=O | > 100 µM (inactive) |  | 91 µM (inactive) | 30.3 µM (inactive) | 90.8 µM (inactive) | 58.3 µM (inactive) | 28.2 µM (inactive) | > 100 µM (inactive) | 32.6 µM (inactive) | 73.8 µM (inactive) | 63.4 µM (inactive) |  |  | 33.7 µM (inactive) | > 100 µM (inactive) | > 100 µM (inactive) | > 100 µM (inactive) | 24.9 µM (inactive) | 44.7 µM (inactive) | 
6 | O=[N+]([O-])c1ccc(N2C[N+](c3ccccc3)=NC(c3ccccc3)=N2)cc1 | 73.1 µM (inactive) |  | 20.5 µM (inactive) | 32.2 µM (inactive) | 29.4 µM (inactive) | 38.2 µM (inactive) | 37.8 µM (inactive) | 29 µM (inactive) | 26.2 µM (inactive) | 72.3 µM (inactive) | 25.6 µM (inactive) |  |  | 38.5 µM (inactive) | 91.2 µM (inactive) | 44.5 µM (inactive) | 43.9 µM (inactive) | 29.4 µM (inactive) | 17.3 µM (inactive) | 
7 | CC(C)(C)OC(=O)NCC(=O)NCC(=O)NCC(=O)NCC(=O)O (Boc-GGGG-OH) | > 100 µM (inactive) | > 100 µM (inactive) |  | > 100 µM (inactive) | > 100 µM (inactive) | > 100 µM (inactive) | > 100 µM (inactive) | > 100 µM (inactive) | > 100 µM (inactive) | > 100 µM (inactive) | > 100 µM (inactive) | > 100 µM (inactive) | 66.1 µM (inactive) | > 100 µM (inactive) | > 100 µM (inactive) | > 100 µM (inactive) | > 100 µM (inactive) | > 100 µM (inactive) | > 100 µM (inactive) | 
8 | CCN(CC)C(=S)SS(=O)(=O)c1ccc(Cl)cc1 | 44 µM (inactive) |  | 65.6 µM (inactive) | 15.1 µM (inactive) | 11.7 µM (inactive) |  | 0.0796 µM (active) | 9.04 µM (inactive) | 20.5 µM (inactive) | 21.6 µM (inactive) | 0.0319 µM (active) |  | 43.5 µM (inactive) | 24.2 µM (inactive) | 11.7 µM (inactive) | 45.5 µM (inactive) | 17.8 µM (inactive) | 53 µM (inactive) | 17.7 µM (inactive) | 36.1 µM (inactive)
